Experiments:
[1] = molecular target: T1, human ROCK1 (Homo sapiens, UniProt Q13464); experiment: Measurement of Rho kinase inhibitory activity (ELISA of MBS phosphorylation); format: biochemical; conditions: human ROCK1, MBS substrate, 100 μM ATP, 30° C. for 10 minutes
T1 construct: His tag (N); host or cells: insect cells (Sf9)
Outline: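 N-terminal His-tagged human ROCK1 (1-727, Sf9-expressed) phosphorylated plate-immobilized MBS in 20 mM HEPES pH 7.5, 100 μM ATP, 30° C for 10 minutes. Phospho-MBS detected by antibody ELISA (A490); IC50 is concentration giving 50% inhibition.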

[2] = system: rat spinal canal stenosis (cauda equina compression-induced walking dysfunction) model; experiment: Rat spinal canal stenosis model, walking ability test; format: in vivo; conditions: treadmill; for walk distance compared with the solvent repetitive administration group: 14th day of repetitive administration; for Inventive compound repetitive administration group (average distance (m)): 14th day of repetitive administration started 4th day after operation, 7 or 8 animals
Source text: A rat spinal canal stenosis (cauda equina compression-induced walking dysfunction) model can be prepared according to the method of Nakai, K et al. (Anesth. Analg., 94, pp. 1537-1541 (2002)) or the like. Namely, a rat is anesthetized with pentobarbital sodium, shaved on the back, and fixed in the abdominal position. After disinfection on the back with Isodine Surgical Scrub (Meiji Seika), a lumbar part is cut open along the median to expose the spine. Then, a silicone rubber of 1×4×1.5 mm (height×length×width) is inserted into the fifth lumbar vertebral canal from a small hole on the vertebral arch. Benzylpenicillin potassium (Crystalline Penicillin G Potassium Meiji, Meiji Seika) is dropped on the opened lesion and intramuscularly injected in the femoral region for the purpose of evasion of infectious diseases. The muscles and skin of the opened lesion are sutured with a ligature, and Isodine Surgical Scrub is applied to the sutured portion. Animals of sham group are also prepared according to the aforementioned method, provided that silicone rubber is not inserted.
In walking ability test, evaluation is performed by using a treadmill (Muromachi Kikai). A rat is placed on a traveling belt, adapted to the environment more than 3 minutes under a grid-electrified condition (0.04 to 4 mA), and then made to start walking from a velocity of 10 m/min, and then the velocity is increased by 5 m/min every 3 minutes. The walk is stopped, and electrical stimulation (0.04 to 4 mA) is applied to the rat which has moved to the grid for electrical stimulation provided before the traveling belt. Distance which the animal walked after the animal started the walk until the animal became unable to walk, i.e., the animal came not to walk even if a stimulation (sound, contact, electricity) was added to the animal to urge it to walk, was calculated from the walking time. Before the operation, the walking function test is carried out 3 times to perform training of walk. From the 4th day after the operation, repetitive administration of each compound of the present invention as a test compound was started, and the walking ability test was performed on the 14th day of the administration for the measurement.
Each group consisted of 7 or 8 animals, and the average distance before the administration was the average for the animals of both groups. […] It was confirmed that the compounds of the present invention were useful as medicaments for therapeutic treatment of a disease accompanied by walking dysfunction such as spinal canal stenosis.

T1 sequence (Q13464 1-727): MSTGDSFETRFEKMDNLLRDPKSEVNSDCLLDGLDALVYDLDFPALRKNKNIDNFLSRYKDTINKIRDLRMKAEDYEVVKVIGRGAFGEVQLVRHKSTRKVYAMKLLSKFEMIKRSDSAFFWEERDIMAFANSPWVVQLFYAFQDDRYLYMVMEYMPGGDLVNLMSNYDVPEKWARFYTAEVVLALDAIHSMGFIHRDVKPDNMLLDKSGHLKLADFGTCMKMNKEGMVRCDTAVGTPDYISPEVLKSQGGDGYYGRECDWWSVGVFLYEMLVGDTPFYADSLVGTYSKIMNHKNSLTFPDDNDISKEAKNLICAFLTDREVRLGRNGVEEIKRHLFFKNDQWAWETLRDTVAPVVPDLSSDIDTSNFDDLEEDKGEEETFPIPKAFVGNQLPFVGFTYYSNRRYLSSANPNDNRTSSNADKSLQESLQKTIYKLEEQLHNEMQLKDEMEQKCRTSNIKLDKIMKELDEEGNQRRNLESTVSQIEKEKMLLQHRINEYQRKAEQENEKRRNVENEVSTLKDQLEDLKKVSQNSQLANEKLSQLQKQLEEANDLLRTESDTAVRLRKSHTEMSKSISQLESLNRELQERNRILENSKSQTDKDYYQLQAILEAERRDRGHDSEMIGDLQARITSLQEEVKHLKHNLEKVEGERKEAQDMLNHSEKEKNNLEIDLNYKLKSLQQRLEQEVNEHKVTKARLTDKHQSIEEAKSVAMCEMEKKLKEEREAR

CN[C@H]1CCN(S(=O)(=O)c2cccc3c(O)ncc(Cl)c23)C1 [Example 36-1, (S)-1-(1-Hydroxy-4-chloro-5-isoquinolinesulfonyl)-3-(methylamino)pyrrolidine]
IC50 [1]: < 1000 nM
walk distance compared with the solvent repetitive administration group [2]: extended the walk distance
Inventive compound repetitive administration group (average distance (m)) [2]: 298 m

N[C@H]1CCN(S(=O)(=O)c2cccc3cncc(Cl)c23)C1 [Example 19-1, (S)-3-Amino-1-(4-chloro-5-isoquinolinesulfonyl)pyrrolidine]
IC50 [1]: < 1000 nM

CN[C@H]1CCN(S(=O)(=O)c2cccc3cncc(Cl)c23)C1 [Example 19-3, (S)-1-(4-Chloro-5-isoquinolinesulfonyl)-3-(methylamino)pyrrolidine]
IC50 [1]: < 1000 nM
walk distance compared with the solvent repetitive administration group [2]: extended the walk distance
Inventive compound repetitive administration group (average distance (m)) [2]: 285 m

CN[C@H]1CCN(S(=O)(=O)c2cccc3cncc(C)c23)C1 [Example 8-3]
IC50 [1]: < 1000 nM
walk distance compared with the solvent repetitive administration group [2]: extended the walk distance
Inventive compound repetitive administration group (average distance (m)) [2]: 224 m

— patent publication US7964613B2 (Asahi Kasei Pharma Corporation, priority 2007, dated 2011)
